Test [1] deals with MV4;11, MOLM-13 and RS4;11 acute leukemia cell lines. The experiment in a line: Cell growth inhibition, statements covering the three leukemia cell lines. In kind it is cell-based, human.
In test [2] the test system is BRD2, BRD3 and BRD4 proteins in RS4;11 cells. The settings on record: for lowest concentration very effective in inducing degradation of BET proteins: 3 h treatment.
Test [3] deals with cleaved PARP and cleaved Caspase 3 in RS4;11 cells. Description: Western blotting of cleaved PARP / caspase 3 in RS4. The format is cell-based, human. To be noted: RS4;11 cells; for apoptosis induction revealed by cleavage of PARP: 1 and 10 nM, 24 h treatment. For orientation: In western blotting, separated proteins are transferred to a membrane and probed.
For test [4], the system named is c-Myc protein in RS4;11 cells. Description: Western blotting of c-Myc in RS4. The format is cell-based, human. To be noted: RS4;11 cells, 3 h treatment.
Test [5] deals with T1, BRD4 BD1 protein (Homo sapiens, UniProt O60885). Description: biochemical.
Test [6] addresses T1, BRD4 BD1 protein. To be noted: for times less potent than 3 in binding to BRD4 BD1: vs compound 3.
Test [7] deals with MOLM-13 cells. Description: Apoptosis by flow cytometry. The format is cell-based, human. The settings on record: MOLM-13, 1–10 μM. On the technique in general: A flow cytometer gives signals particle by particle.
Test [8] has as its system MV4;11 cells. Description: Apoptosis by flow cytometry. The format is cell-based, human. The settings on record: MV4;11, 1–10 μM.
In test [9] the test system is RS4;11 cells. The experiment in a line: Apoptosis by flow cytometry. To be noted: RS4;11, 1–10 μM. The format is cell-based, human.

Where only a bound is given, the exact number is not on record here.

For the molecule “4-(4-((3-Benzyl-9-methyl-4H,6H-thieno[2,3-e][1,2,4]triazolo[3,4-c][1,4]oxazepin-2-yl)ethynyl)-1H-pyrazol-1-yl)-2-(2,6-dioxopiperidin-3-yl)isoindoline-1,3-dione [Compound 26]”, the “cell growth inhibitory activity” value in [1] (concentrations up to 1,000 nM, any of the three leukemia cell lines) was “failed to show significant cell growth inhibitory activity”. In test [2] (up to 1,000 nM, 24 h treatment), the “degradation of BRD2, BRD3 and BRD4 proteins” value was “failed to induce degradation”.
For “4-(5-(4-((3-Benzyl-9-methyl-4H,6H-thieno[2,3-e][1,2,4]triazolo[3,4-c][1,4]oxazepin-2-yl)ethynyl)-1H-pyrazol-1-yl)pent-1-yn-1-yl)-2-(2,6-dioxopiperidin-3-yl)isoindoline-1,3-dione [Compound 36]”, the “times less potent than 35 in cell growth inhibition” value in test [1] (three leukemia cell lines) is 10–100 times.
Take “4-((2-(4-((3-Benzyl-9-methyl-4H,6H-thieno[2,3-e][1,2,4]triazolo[3,4-c][1,4]oxazepin-2-yl)ethynyl)-1H-pyrazol-1-yl)ethyl)amino)-2-(2,6-dioxopiperidin-3-yl)isoindoline-1,3-dione [Compound 28]”: the “apoptosis induction revealed by cleavage of PARP” value (shortened to “apoptosis induction revealed”) in test [3] was “potently induce apoptosis”.
As to “4-((3-(4-((3-Benzyl-9-methyl-4H,6H-thieno[2,3-e][1,2,4]triazolo[3,4-c][1,4]oxazepin-2yl)ethynyl)-1H-pyrazol-1-yl)propyl)amino)-2-(2,6-dioxopiperidin-3-yl)isoindoline-1,3-dione [Compound 29]”, the “times more potent than 28 in cell growth inhibition” value in test [1] (three cell lines) is 3–10 times. The “apoptosis induction revealed” value in test [3] is recorded as “potently induce apoptosis”. In test [2], the “lowest concentration very effective in inducing degradation of BET proteins” value is recorded as no more than 0.1 nM.
As to “4-((4-(4-((3-Benzyl-9-methyl-4H,6H-thieno[2,3-e][1,2,4]triazolo[3,4-c][1,4]oxazepin-2yl)ethynyl)-1H-pyrazol-1-yl)butyl)amino)-2-(2,6-dioxopiperidin-3-yl)isoindoline-1,3-dione [Compound 30]”, in test [1] (each of the three leukemia cell lines), the “times more potent than 29 in cell growth inhibition” value is 2–3 times. Moreover, the “lowest concentration reducing the levels of c-Myc protein” value in test [4] is no more than 0.1 nM. Also, the “apoptosis induction revealed” value in test [3] is “potently induce apoptosis”. In [2], the “lowest concentration very effective in inducing degradation of BET proteins” value is no more than 0.1 nM.
For “4-((4-((3-Benzyl-9-methyl-4H,6H-thieno[2,3-e][1,2,4]triazolo[3,4-c][1,4]oxazepin-2-yl)ethynyl)-1H-pyrazol-1-yl)methoxy)-2-(2,6-dioxopiperidin-3-yl)isoindoline-1,3-dione [Compound 27]”, in [2], the “degradation of BRD2 and BRD3 relative to BRD4” value was “more effectively than the BRD4 protein”; the “relative potency in inducing degradation of BET proteins” value was “much less potent than compounds 29, 30 and 31”. Moreover, in test [2] (time- and dose-dependent), the “lowest concentration very effective in inducing degradation of BRD2, BRD3 and BRD4” value is given as no more than 10 nM.
In the case of “4-((5-(4-((3-Benzyl-9-methyl-4H,6H-thieno[2,3-e][1,2,4]triazolo[3,4-c][1,4]oxazepin-2-yl)ethynyl)-1H-pyrazol-1-yl)pentyl)amino)-2-(2,6-dioxopiperidin-3-yl)isoindoline-1,3-dione [Compound 31]”, in test [4], the “lowest concentration reducing the levels of c-Myc protein” value was no more than 0.1 nM. The “apoptosis induction revealed” value in [3] is “potently induce apoptosis”. Also, the “lowest concentration very effective in inducing degradation of BET proteins” value in test [2] is no more than 0.1 nM.
The IC50 is the concentration that gives 50% inhibition. A high value points to lower potency. The term Ki denotes a measure of affinity in units of concentration, obtained from inhibition or displacement. Read a high Ki as weaker binding. As to `Cc1cc2c(s1)-n1c(C)nnc1COC2` [Compound 2, 2,9-dimethyl-4H,6H-thieno[2,3-e][1,2,4]triazolo[3,4-c][1,4]oxazepine], in test [5], the IC50 was found to be 4400 ± 700 nM and affinity was put at a Ki of 1500 ± 200 nM.
Take `Cc1nnc2n1-c1scc(Cc3ccccc3)c1COC2` [Compound 4, 3-Benzyl-9-methyl-4H,6H-thieno[2,3-e][1,2,4]triazolo[3,4-c][1,4]oxazepine]: the “times less potent than 3 in binding to BRD4 BD1” value in test [6] came out at 25 times.
In the case of `Cc1nnc2n1-c1sc(C3CCOCC3)c(Cc3ccccc3)c1COC2` [Compound 6, 3-Benzyl-9-methyl-2-(tetrahydro-2H-pyran-4-yl)-4H,6H-thieno[2,3-e][1,2,4]triazolo[3,4c][1,4]oxazepine], the “times less potent than 3 in binding to BRD4 BD1” value in [6] was greater than 50 times.
For `Cc1nnc2n1-c1sc(C#N)c(Cc3ccccc3)c1COC2` [Compound 9, 3-Benzyl-9-methyl-4H,6H-thieno[2,3-e][1,2,4]triazolo[3,4-c][1,4]oxazepine-2-carbonitrile], the “times less potent than 3 in binding to BRD4 BD1” value in test [6] is recorded as 6 times. Also, the “times less potent than 8 in binding to BRD4 BD1” value in test [6] (vs compound 8) worked out at 3 times.
On to `Cc1nnc2n1-c1sc(C#Cc3cnn(C)c3)c(Cc3ccccc3)c1COC2` [Compound 22, 3-Benzyl-9-methyl-2-((1-methyl-1H-pyrazol-4-yl)ethynyl)-4H,6H-thieno[2,3-e][1,2,4]triazolo[3,4-c][1,4]oxazepine], for which, in [3] (10 μM, 24 h), the PARP cleavage result is on record as “only marginally”. Further, the apoptosis induction result in test [7], in test [8] and in test [9] was “minimal to modest effect” each time.
